One data set concerns the target T1, σ1-receptor (Cavia porcellus, UniProt Q60492).
T1 construct: guinea pig brains are homogenized; from tissue; host or cells: guinea pig brain membranes
Kind of data set: Sigma-1 receptor binding assay, [3H](+)-pentazocine, brain membranes. As to conditions: guinea pig brain membranes. How it is done: Brain membrane preparation and binding assays for the σ1-receptor are performed as described (DeHaven-Hudkins et al., 1992) with some modifications. In brief, guinea pig brains are homogenized in 10 vols. (w/v) of Tris-HCl 50 mM 0.32 M sucrose, pH 7.4, with a Kinematica Polytron PT 3000 at 15000 r.p.m. for 30 s. The homogenate is centrifuged at 1000 g for 10 min at 4° C. and the supernatants collected and centrifuged again at 48000 g for 15 min at 4° C. The pellet is resuspended in 10 volumes of Tris-HCl buffer (50 mM, pH 7.4), incubated at 37° C. for 30 min, and centrifuged at 48000 g for 20 min at 4° C. Following this, the pellet is resuspended in fresh Tris-HCl buffer (50 mM, pH 7.4) and stored on ice until use.
Each assay tube contains 10 μL of [^3H](+)-pentazocine (final concentration of 0.5 nM), 900 μL of the tissue suspension to a final assay volume of 1 mL and a final tissue concentration of approximately 30 mg tissue net weight/mL. Non-specific binding is defined by addition of a final concentration of 1 μM haloperidol. All tubes are incubated at 37° C. for 150 min before termination of the reaction by rapid filtration over Schleicher & Schuell GF 3362 glass fibre filters [previously soaked in a solution of 0.5% polyethylenimine for at least 1 h]. Filters are then washed four times with 4 mL of cold Tris-HCl buffer (50 mM, pH 7.4). Following addition of scintillation cocktail, the samples are allowed to equilibrate overnight. The amount of bound radioactivity is determined by liquid scintillation spectrometry using a Wallac Winspectral 1414 liquid scintillation counter. Protein concentrations are determined by the method of Lowry et al. (1951).

Data set [1] relates to capsaicin-induced allodynia. Kind of data set: Von Frey filaments in a model of capsaicin-induced allodynia. As to conditions: mice, percent analgesia compared to control, mechanical stimulus after capsaicin injection into paw. The data set is classed as in vivo. How it is done:
This model is described in detail in the experimental part of WO 2006/010587 A1, examples 1 and 2, the description being included here by reference. Capsaicin is thereby injected into experimental animals to produce acute pain followed by allodynia.
Briefly after habituation mice were first treated with the test-compound (or not in controls). Then capsaicin (1% DMSO) is injected into their paw resulting in developing pain in the effected paw. The effected paw is then treated with a mechanical stimulus and the latency time before the paw is withdrawn is measured.
The results obtained for examples 5, 6 and 8 are shown in table (II) as percent analgesia compared to control achieved at […] 16 mg/kg i.p.

A word on the melting point: it is the temperature, or range, at which the solid turns liquid. One may read the Ki as the dissociation constant of the complex between target and ligand, obtained from inhibition or displacement. A lower Ki goes with tighter binding.

T1 sequence (Q60492 whole entry): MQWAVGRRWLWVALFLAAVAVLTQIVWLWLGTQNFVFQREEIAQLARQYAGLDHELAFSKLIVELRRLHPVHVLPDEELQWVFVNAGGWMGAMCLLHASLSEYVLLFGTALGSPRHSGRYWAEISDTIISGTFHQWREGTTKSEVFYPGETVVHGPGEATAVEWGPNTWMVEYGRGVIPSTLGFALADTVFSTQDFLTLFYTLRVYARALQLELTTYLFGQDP

`O=C(O)C(=O)O.c1ccc(C2CCN(CCOc3ccn(C4CCCCC4)n3)CC2)cc1` [Example 11, 1-(2-(1-Cyclohexyl-1H-pyrazol-3-yloxy)ethyl)-4-phenylpiperidine oxalate]: the melting point is 122 to 128 °C. In addition, at σ1-receptor, the affinity, expressed as Ki, was 8.6 nM.
Consider `O=C(O)C(=O)O.c1cn(C2CCCCC2)nc1OCCN1CCOCC1` [Example 5, 4-(2-(1-cyclohexyl-1H-pyrazol-3-yloxy)ethyl)morpholine oxalate], for which the melting point fell in the range of 135 to 140 °C. The “Analgesia (16 mg/kg), i.p. %” value in data set [1] was determined as 20%. For the same compound, the affinity on σ1-receptor, expressed as Ki, was 4.1 ± 0.1 nM.
`CCN(CC)CCOc1ccn(C(C)(C)C)n1.O=C(O)C(=O)O` registered a melting point of 96 to 98 °C.
Turning to `CC(C)(C)n1ccc(OCCN2CCCC2)n1.O=C(O)C(=O)O` [Example 4, 1-tert-butyl-3-[2-(pyrrolidin-1-yl)ethoxy]-1H-pyrazole oxalate], the melting point was in the range of 82 to 88 °C.
Same read-out and setting: as for `CC(C)(C)n1ccc(OCCN2CCCCC2)n1.O=C(O)C(=O)O` [Example 2, 1-[2-(1-tert-butyl-1H-pyrazol-3-yloxy)ethyl]piperidine oxalate], the figure is 123 to 126 °C.
In turn, `O=C(O)C(=O)O.c1cn(C2CCCCC2)nc1OCCN1CCCC1` [Example 8, 1-Cyclohexyl-3-(2-(pyrrolidin-1-yl)ethoxy)-1H-pyrazole oxalate] showed a melting point of 117 to 119 °C. Also, in data set [1], the “Analgesia (16 mg/kg), i.p. %” value is given as 65%. On σ1-receptor, affinity was put at a Ki of 2.5 nM.
The corresponding values for `O=C(O)C(=O)O.c1cn(C2CCCCC2)nc1OCCN1CCCCC1` [Example 6, 1-(2-(1-cyclohexyl-1H-pyrazol-3-yloxy)ethyl)piperidine oxalate] are 105 to 110 °C, 70% and 1 ± 0.3 nM.
With `CCN(CC)CCOc1ccn(C2CCCCC2)n1.O=C(O)C(=O)O` [Example 7, 2-(1-cyclohexyl-1H-pyrazol-3-yloxy)-N,N-diethylethanamine oxalate], the melting point was 85 to 90 °C.
